# Laboratory results taken from ChEMBL document CHEMBL4177524, “Discovery of hepatitis B virus capsid assembly inhibitors leading to a heteroaryldihydropyrimidine based clinical candidate (GLS4)” (Bioorg Med Chem, 2017).
# Columns and labels:
# [1] = Cytotoxicity in human HepG2.215 cells assessed as reduction in cell viability after 5 days by CCK8 assay; format: cell-based, HepG2 2.2.15; conditions: HepG2.2.15 cells
# Hepatitis B virus [2] = experiment: Antiviral activity against entecavir-resistant hepatitis B virus harboring reverse transcriptase M204I/S202G double mutant infected in human Huh7 cells assessed as reduction in intracellular DNA levels measured on day 7 by real-time PCR analysis; format: functional, organism-based; conditions: Huh-7, 168 h
# Hepatitis B virus [3] = experiment: Antiviral activity against entecavir-resistant hepatitis B virus harboring reverse transcriptase M204I/S202G/M250V triple mutant infected in human Huh7 cells assessed as reduction in intracellular DNA levels measured on day 7 by real-time PCR analysis; format: functional, organism-based; conditions: Huh-7, 168 h
# Hepatitis B virus [4] = experiment: Antiviral activity against entecavir-resistant hepatitis B virus harboring reverse transcriptase M204I/S202G double mutant infected in human Huh7 cells assessed as reduction in secreted DNA levels measured on day 7 by real-time PCR analysis; format: functional, organism-based; conditions: Huh-7, 168 h
# Hepatitis B virus [5] = experiment: Antiviral activity against entecavir-resistant hepatitis B virus harboring reverse transcriptase M204I/S202G/M250V triple mutant infected in human Huh7 cells assessed as reduction in secreted DNA levels measured on day 7 by real-time PCR analysis; format: functional, organism-based; conditions: Huh-7, 168 h
# Hepatitis B virus [6] = experiment: Antiviral activity against entecavir-resistant wild type hepatitis B virus infected in human Huh7 cells assessed as reduction in intracellular DNA levels measured on day 7 by real-time PCR analysis; format: functional, organism-based; conditions: Huh-7, 168 h
# Hepatitis B virus [7] = experiment: Antiviral activity against entecavir-resistant wild type hepatitis B virus infected in human Huh7 cells assessed as reduction in secreted DNA levels measured on day 7 by real-time PCR analysis; format: functional, organism-based; conditions: Huh-7, 168 h
Compound,CC50 at 120 h [1],EC50 (Hepatitis B virus [2]),EC50 (Hepatitis B virus [3]),EC50 (Hepatitis B virus [4]),EC50 (Hepatitis B virus [5]),EC50 (Hepatitis B virus [6]),EC50 (Hepatitis B virus [7])
C[C@H](Cn1cnc2c(N)ncnc21)OCP(=O)(O)O [TENOFOVIR ANHYDROUS],399 µM,,,,,,
C=C1[C@H](CO)[C@@H](O)C[C@@H]1n1cnc2c(=O)[nH]c(N)nc21,30 µM,> 20 µM,> 20 µM,> 20 µM,> 20 µM,0.013 µM,0.014 µM
